The results in this text go back to patent US12570639B2, “Tetrahydroquinoline derivative and medicinal use thereof” (Toray Industries, Inc., priority 2020, dated 2026).

Each structure is given as a SMILES string.

The first assay concerns Human fibrosarcoma cells (HT-1080 cells). Kind of assay: In vitro inhibitory action against ferroptosis (Erastin-induced cell death, Cell Counting Kit-8). It counts as cell-based. Conditions: evaluation concentration 30 μmol/L, Erastin 3 μmol/L, 24 hours. How it is done:
The inhibitory action against ferroptosis of the tetrahydroquinoline derivative (I) or a pharmaceutically acceptable salt thereof was evaluated with Human fibrosarcoma cells (HT-1080 cells), by using, as an index, the inhibitory action against the cell death induced by treatment with a ferroptosis inducer, Erastin.
HT-1080 cells (ATCC) were cultured in a mixture (hereinafter referred to as vehicle) composed of DMEM/F12 (Thermo Fisher Scientific, Inc.), a final concentration of 10% fetal bovine serum (Thermo Fisher Scientific, Inc.), and a final concentration of 1% penicillin-streptomycin solution (Nacalai Tesque, Inc.). Cells were seeded into 96-well plates (Corning Inc.) at 5×10^4 cells/well and cultured overnight.
A test compound was dissolved in DMSO, and the resulting solution was diluted in the vehicle to a final concentration of 1% DMSO and then used. […] Thirty minutes after the addition of the test compound, Erastin (Cayman Chemical Co.) diluted in the vehicle at a final concentration of 3 μmol/L was added to wells. The wells added with the test compound and Erastin were grouped as “test compound,” and the wells added with no test compound and no Erastin were grouped as “background,” and the wells added with no test compound but with Erastin were grouped as “control.” Twenty-four hours after the addition of Erastin, 5 μL of Cell Counting Kit-8 (Dojindo Laboratories) was added to each well and incubated for 4 hours, and the absorbance at 450 nm was then measured for each well (N=2). […] Ferroptosis inhibition rate (%)=[1−{(Average absorbance value at 450 nm measured when a test compound is added)−(Average absorbance value at 450 nm measured in the background)}/{(Average absorbance value at 450 nm measured in the control)−(Average absorbance value at 450 nm measured in the background)}]×100 Equation 1
For orientation: Tetrazolium assays rely on reduction of a dye to a coloured formazan, in cell work by metabolically active cells.
As to `c1ccc([C@H]2CCc3ccccc3N2)cc1` [Example 2, (R)-2-phenyl-1,2,3,4-tetrahydroquinoline], the “Ferroptosis inhibition rate (%)” value stood at 117.4%.

Turning to `c1ccc([C@@H]2CCc3ccccc3N2)cc1` [Example 3, (S)-2-phenyl-1,2,3,4-tetrahydroquinoline], the “Ferroptosis inhibition rate (%)” value turned out to be 110.2%.

With `CC(=O)Nc1ccc(C2CCc3ccccc3N2)cc1` (stereo not shown) [Example 21, N-(4-(1,2,3,4-tetrahydroquinolin-2-yl)phenyl)acetamide], the “Ferroptosis inhibition rate (%)” value stood at 88.33%.

As to `NS(=O)(=O)c1ccc(C2CCc3ccccc3N2)cc1` (stereo not shown) [Example 34, 4-(1,2,3,4-tetrahydroquinolin-2-yl)benzenesulfonamide], the “Ferroptosis inhibition rate (%)” value was 86.96%.

For `N#Cc1ccc(C2CCc3ccccc3N2)cc1` (stereo not shown) [Example 35, 4-(1,2,3,4-tetrahydroquinolin-2-yl)benzonitrile], the “Ferroptosis inhibition rate (%)” value is on record as 106.5%.

`NC(=O)c1ccc(C2CCc3ccccc3N2)cc1` (stereo not shown) [Example 37, 4-(1,2,3,4-tetrahydroquinolin-2-yl)benzamide]: the “Ferroptosis inhibition rate (%)” value amounted to 98.69%.

As for `OCc1ccc2c(c1)CCC(c1ccccc1)N2` (stereo not shown) [Example 58, (2-phenyl-1,2,3,4-tetrahydroquinolin-6-yl)methanol], the “Ferroptosis inhibition rate (%)” value was 91.37%.

`NC(=O)Cc1ccc2c(c1)CCC(c1ccccc1)N2` (stereo not shown) [Example 60, 2-(2-phenyl-1,2,3,4-tetrahydroquinolin-6-yl)acetamide]: the “Ferroptosis inhibition rate (%)” value was 98.74%.

For `CC(C)(C)NC(=O)Cc1ccc2c(c1)CCC(c1ccccc1)N2` (stereo not shown) [Example 61, N-(tert-butyl)-2-(2-phenyl-1,2,3,4-tetrahydroquinolin-6-yl)acetamide], the “Ferroptosis inhibition rate (%)” value came out at 103.9%.

Consider `O=C(Cc1ccc2c(c1)CCC(c1ccccc1)N2)N1CC(O)C1` (stereo not shown) [Example 62, 1-(3-hydroxyazetidin-1-yl)-2-(2-phenyl-1,2,3,4-tetrahydroquinolin-6-yl)ethan-1-one], for which the “Ferroptosis inhibition rate (%)” value stood at 103.2%.

For `CC(C)(C)CC(=O)Nc1ccc2c(c1)CCC(c1ccccc1)N2` (stereo not shown) [Example 129, 3,3-dimethyl-N-(2-phenyl-1,2,3,4-tetrahydroquinolin-6-yl)butanamide], the “Ferroptosis inhibition rate (%)” value was 88.31%.

Regarding `CC(C)(C)CC(=O)Nc1ccc2c(c1)CCC(c1ccccc1)N2` (stereo not shown) [Example 130, 3,3-dimethyl-N-(2-phenyl-1,2,3,4-tetrahydroquinolin-6-yl)butanamide], the “Ferroptosis inhibition rate (%)” value stood at 104.2%.

With `O=C1CCc2cc(C3CCc4cc(F)ccc4N3)ccc2N1` (stereo not shown) [Example 133, 6-fluoro-1,2,3,3′,4,4′-hexahydro-[2,6′-biquinolin]-2′(1′H)-one], the “Ferroptosis inhibition rate (%)” value is on record as 98.54%.

With `O=C1CCc2cc(C3CCc4ccc(F)cc4N3)ccc2N1` (stereo not shown) [Example 139, 7-fluoro-1,2,3,3′,4,4′-hexahydro-[2,6′-biquinolin]-2′(1′H)-one], the “Ferroptosis inhibition rate (%)” value was 60.63%.

Regarding `N#Cc1ccc(C2CCc3ccccc3N2)cc1F` (stereo not shown) [Example 141], the “Ferroptosis inhibition rate (%)” value was 59.10%.

Regarding `NS(=O)(=O)c1ccc(C2CCc3cc(C(F)(F)F)ccc3N2)cc1` (stereo not shown) [Example 142, 4-(6-(trifluoromethyl)-1,2,3,4-tetrahydroquinolin-2-yl)benzenesulfonamide], the “Ferroptosis inhibition rate (%)” value was 64.86%.

For the compound `O=C(Cc1ccc2c(c1)CCC(c1ccccc1)N2)NCC1CC1` (stereo not shown) [Example 153, N-(cyclopropylmethyl)-2-(2-phenyl-1,2,3,4-tetrahydroquin-olin-6-yl)acetamide], the “Ferroptosis inhibition rate (%)” value turned out to be 110.1%.

`O=C(Cc1ccc2c(c1)CCC(c1ccccc1)N2)NCC1COC1` (stereo not shown) [Example 154, N-(oxetan-3-ylmethyl)-2-(2-phenyl-1,2,3,4-tetrahydroquin-olin-6-yl)acetamide]: the “Ferroptosis inhibition rate (%)” value came to 114.6%.

`O=C(Cc1ccc2c(c1)CCC(c1ccccc1)N2)N1CCCC1` (stereo not shown) [Example 156, 2-(2-phenyl-1,2,3,4-tetrahydroquinolin-6-yl)-1-(pyrrolidin-1-yl)ethan-1-one]: the “Ferroptosis inhibition rate (%)” value is given as 57.76%.

Take `CNC(=O)Cc1ccc2c(c1)CCC(c1ccccc1)N2` (stereo not shown) [Example 159, N-methyl-2-(2-phenyl-1,2,3,4-tetrahydroquinolin-6-yl)acetamide]: the “Ferroptosis inhibition rate (%)” value is given as 76.27%.

In the case of `Clc1ccc2c(c1)CC(c1ccccc1)CN2` (stereo not shown) [Example 163, 6-chloro-3-phenyl-1,2,3,4-tetrahydroquinoline], the “Ferroptosis inhibition rate (%)” value is listed as 89.32%.

Take `Clc1ccc2c(c1)NCC(c1ccccc1)C2` (stereo not shown) [Example 164, 7-chloro-3-phenyl-1,2,3,4-tetrahydroquinoline]: the “Ferroptosis inhibition rate (%)” value was determined as 72.33%.

On to `OCc1ccc(C2CNc3ccccc3C2)cc1` (stereo not shown) [Example 165, (4-(1,2,3,4-tetrahydroquinolin-3-yl)phenyl)methanol], for which the “Ferroptosis inhibition rate (%)” value came to 96.77%.

As to `NC(=O)c1ccc(C2CNc3ccccc3C2)cc1` (stereo not shown) [Example 166, 4-(1,2,3,4-tetrahydroquinolin-3-yl)benzamide], the “Ferroptosis inhibition rate (%)” value is given as 96.52%.

As to `NS(=O)(=O)c1ccc(C2CNc3ccccc3C2)cc1` (stereo not shown) [Example 167, 4-(1,2,3,4-tetrahydroquinolin-3-yl)benzenesulfonamide], the “Ferroptosis inhibition rate (%)” value was determined as 76.82%.

Regarding `CC(=O)Nc1ccc(C2CNc3ccccc3C2)cc1` (stereo not shown) [Example 168, N-(4-(1,2,3,4-tetrahydroquinolin-3-yl)phenyl)acetamide], the “Ferroptosis inhibition rate (%)” value is given as 86.46%.

`CS(=O)(=O)c1ccc(C2CNc3ccccc3C2)cc1` (stereo not shown) [Example 169, 3-(4-(methylsulfonyl)phenyl)-1,2,3,4-tetrahydroquinoline]: the “Ferroptosis inhibition rate (%)” value is recorded as 85.58%.

For `c1cncc(C2CNc3ccccc3C2)c1` (stereo not shown) [Example 170, 3-(pyridin-3-yl)-1,2,3,4-tetrahydroquinoline], the “Ferroptosis inhibition rate (%)” value turned out to be 93.41%.

The assay is the same for the next values; noted with them: evaluation concentration 50 μmol/L, Erastin 3 μmol/L, 24 hours.
`CS(=O)(=O)c1ccc(C2CCc3ccccc3N2)cc1` (stereo not shown) [Example 16, 2-(4-(methylsulfonyl)phenyl)-1,2,3,4-tetrahydroquinoline]: the “Ferroptosis inhibition rate (%)” value is 90.31%.

As to `Fc1ccc(C2CCc3ccccc3N2)cc1` (stereo not shown) [Example 26, 2-(4-fluorophenyl)-1,2,3,4-tetrahydroquinoline], the “Ferroptosis inhibition rate (%)” value stood at 107.7%.

Consider `FC(F)(F)c1ccc(C2CCc3ccccc3N2)cc1` (stereo not shown) [Example 29, 2-(4-(trifluoromethyl)phenyl)-1,2,3,4-tetrahydroquinoline], for which the “Ferroptosis inhibition rate (%)” value came to 95.38%.

Turning to `FC(F)(F)Oc1ccc(C2CCc3ccccc3N2)cc1` (stereo not shown) [Example 31, 2-(4-(trifluoromethoxy)phenyl)-1,2,3,4-tetrahydroquinoline], the “Ferroptosis inhibition rate (%)” value was found to be 98.99%.

As for `c1ccc(C2CNc3ccccc3C2)cc1` (stereo not shown) [Example 162, 3-phenyl-1,2,3,4-tetrahydroquinoline], the “Ferroptosis inhibition rate (%)” value worked out at 108.4%.

System in another assay: not listed separately
Kind of assay: In vitro radical scavenging action (DPPH method). Conditions: 30 minutes at room temperature, maximum concentration 100 μmol/L. How it is done:
Radical scavenging action was evaluated using the DPPH method in the compound of Comparative Example 1, which is a tetrahydroquinoxaline derivative, and in the tetrahydroquinoline derivative (I) or a pharmaceutically acceptable salt thereof. The DPPH method was performed using an antioxidant capacity measurement kit (Dojindo Laboratories).
A test compound was dissolved in DMSO, and the resulting solution was then mixed with an assay buffer and a DPPH solution, which are included in the kit, to a total volume of 200 μL to obtain a final concentration of 10% DMSO, and the reaction was allowed to proceed. Wells added with 100 μmol/L ferrostatin-1, a radical scavenger, were grouped as “control,” and wells added with not test compound were grouped as “background.” The test compound was serially diluted 3-fold starting from a maximum concentration of 100 μmol/L, and the diluted test compound (1.2, 3.7, 11.1, 33.3, or 100 μmol/L) was added and allowed to react at room temperature. Thirty minutes after the reaction, the absorbance at 517 nm was measured, and the average absorbance value was calculated (N=2). The radical scavenging action of the test compound (hereinafter referred to as radical scavenging rate, %) was calculated based on the equation 2 below. The EC50 value of the test compound was calculated from the radical scavenging rate. Radical scavenging rate (%)=[1−{(Average absorbance value at 517 nm measured when a test compound is added)−(Average absorbance value at 517 nm measured in the background)}/{(Average absorbance value at 517 nm measured in the control)−(Average absorbance value at 517 nm measured in the background)}]×100 Equation 2
A note “no detection of radical scavenging action (N.D.),” is given to compounds with a EC50 of >100 μmol/L.
For orientation: EC50 means the midpoint of the concentration-response curve. A higher EC50 goes with weaker potency. For `c1ccc(C2CNc3ccccc3N2)cc1` (stereo not shown) [Comparative Example 1, 2-phenyl-1,2,3,4-tetrahydroquinoxaline, reference compound], the EC50 was 8.54 µM and the “Radical-scavenging action EC50 (μmol/L)” value is “exhibited radical scavenging action”.

`c1ccc([C@H]2CCc3ccccc3N2)cc1` [Example 2, (R)-2-phenyl-1,2,3,4-tetrahydroquinoline] registered an EC50 above 100 µM.

`c1ccc([C@@H]2CCc3ccccc3N2)cc1` [Example 3, (S)-2-phenyl-1,2,3,4-tetrahydroquinoline] yielded an EC50 above 100 µM.

In turn, `CS(=O)(=O)c1ccc(C2CCc3ccccc3N2)cc1` (stereo not shown) [Example 16, 2-(4-(methylsulfonyl)phenyl)-1,2,3,4-tetrahydroquinoline] came in with an EC50 above 100 µM.

`CC(=O)Nc1ccc(C2CCc3ccccc3N2)cc1` (stereo not shown) [Example 21, N-(4-(1,2,3,4-tetrahydroquinolin-2-yl)phenyl)acetamide] showed an EC50 above 100 µM.

For the compound `Fc1ccc(C2CCc3ccccc3N2)cc1` (stereo not shown) [Example 26, 2-(4-fluorophenyl)-1,2,3,4-tetrahydroquinoline], the EC50 was above 100 µM.

Take `FC(F)(F)c1ccc(C2CCc3ccccc3N2)cc1` (stereo not shown) [Example 29, 2-(4-(trifluoromethyl)phenyl)-1,2,3,4-tetrahydroquinoline]: the EC50 is above 100 µM.

On to `FC(F)(F)Oc1ccc(C2CCc3ccccc3N2)cc1` (stereo not shown) [Example 31, 2-(4-(trifluoromethoxy)phenyl)-1,2,3,4-tetrahydroquinoline], for which the EC50 is above 100 µM.

The compound `NS(=O)(=O)c1ccc(C2CCc3ccccc3N2)cc1` (stereo not shown) [Example 34, 4-(1,2,3,4-tetrahydroquinolin-2-yl)benzenesulfonamide] yielded an EC50 above 100 µM.

Turning to `N#Cc1ccc(C2CCc3ccccc3N2)cc1` (stereo not shown) [Example 35, 4-(1,2,3,4-tetrahydroquinolin-2-yl)benzonitrile], the EC50 is above 100 µM.

Turning to `NC(=O)c1ccc(C2CCc3ccccc3N2)cc1` (stereo not shown) [Example 37, 4-(1,2,3,4-tetrahydroquinolin-2-yl)benzamide], the EC50 is above 100 µM.

For the compound `OCc1ccc2c(c1)CCC(c1ccccc1)N2` (stereo not shown) [Example 58, (2-phenyl-1,2,3,4-tetrahydroquinolin-6-yl)methanol], the EC50 was above 100 µM.

`NC(=O)Cc1ccc2c(c1)CCC(c1ccccc1)N2` (stereo not shown) [Example 60, 2-(2-phenyl-1,2,3,4-tetrahydroquinolin-6-yl)acetamide] registered an EC50 above 100 µM.

In turn, `CC(C)(C)NC(=O)Cc1ccc2c(c1)CCC(c1ccccc1)N2` (stereo not shown) [Example 61, N-(tert-butyl)-2-(2-phenyl-1,2,3,4-tetrahydroquinolin-6-yl)acetamide] had an EC50 above 100 µM.

`O=C(Cc1ccc2c(c1)CCC(c1ccccc1)N2)N1CC(O)C1` (stereo not shown) [Example 62, 1-(3-hydroxyazetidin-1-yl)-2-(2-phenyl-1,2,3,4-tetrahydroquinolin-6-yl)ethan-1-one] returned an EC50 above 100 µM.
